Assay results published in patent publication US20240415918A1, “Polypeptide and its use as a CCK receptor agonist/antagonist” (Centre for Regenerative Medicine & Health, Hong Kong …, priority 2021, published 2024).
“Also recorded” adds a separate entry of the source.

Key:
[1] = molecular target: T1, CCK-B receptors (CHO-CCK) (Homo sapiens, UniProt P32239); experiment: Calcium flux (Fluo-8) antagonist test on CHO-CCK model cells in presence of CCK8; type: cell-based; details: in presence of 10 nM CCK8
T1 construct: expressed in transfected cells; host or cells: CHO (CHO-CCK model cells)
T1 sequence (P32239 1-447): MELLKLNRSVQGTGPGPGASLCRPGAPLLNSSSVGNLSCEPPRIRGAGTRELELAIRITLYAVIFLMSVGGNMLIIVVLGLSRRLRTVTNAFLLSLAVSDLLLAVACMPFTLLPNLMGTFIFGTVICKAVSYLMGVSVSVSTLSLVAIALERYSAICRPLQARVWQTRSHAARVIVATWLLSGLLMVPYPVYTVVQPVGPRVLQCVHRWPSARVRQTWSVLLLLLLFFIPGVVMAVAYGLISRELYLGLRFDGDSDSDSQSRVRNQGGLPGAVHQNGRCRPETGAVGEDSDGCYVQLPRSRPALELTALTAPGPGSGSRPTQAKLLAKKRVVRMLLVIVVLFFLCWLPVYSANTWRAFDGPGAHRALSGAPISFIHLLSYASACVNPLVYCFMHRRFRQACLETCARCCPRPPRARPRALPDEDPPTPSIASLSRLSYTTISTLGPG

[2] = system: tri-transgenic Alzheimer's mice (3×Tg-AD); experiment: Morris water maze, Alzheimer's mice; type: in vivo; details: intraperitoneal injection
Source text: Adult male tri-transgenic Alzheimer's mice (3×Tg-AD) were housed under standard conditions with free access to food and water. Our Morris water maze experiment for testing Alzheimer's mice mainly included two parts: positioning navigation experiment and space exploration experiment. The positioning navigation experiment lasted for 8-10 days, and the mice were put into the water four times a day from four entry points facing the pool wall, and the time they spent in finding the hidden platform under the water surface (evasion latency) was recorded. The space exploration experiment was to remove the platform after the positioning navigation experiment, and then put the mice into the pool, record their swimming tracks within one minute, investigate the memory of the mice on the original platform, and calculate the proportion of exploration duration of the mice in the quadrant where the original platform was located (target quadrant). Alzheimer's mice were confirmed to have memory deficiency in the Morris water maze experiment, showing not only a longer evasion latency for positioning the hidden platform in the positioning navigation experiment, but also a worse memory backtracking ability in the space exploration experiment. We randomized Alzheimer's mice into four groups, with the first group given intraperitoneal injection of the CCK4 solution, the second group given intraperitoneal injection of the solvent of CCK4 solution as a control, the third group given intraperitoneal injection of the compound HT-267 solution, and the fourth group given intraperitoneal injection of the solvent of HT-267 solution as a control.

[3] = system: memory-deficient mice; experiment: Morris water maze, memory-deficient mice; type: in vivo; details: intraperitoneal injection, CCK4 four times a day 10 days, HT compounds once a day 8 days
Source text: Adult memory-deficient mice were housed under standard conditions with free access to food and water. Our Morris water maze experiment for testing memory-deficient mice mainly included two parts: positioning navigation experiment and space exploration experiment. The experimental methods were the same as Example 5. We randomized memory-deficient mice into six groups, with the first group given intraperitoneal injection of the CCK4 solution, the second group given intraperitoneal injection of the solvent of CCK4 solution as a control, the third group given intraperitoneal injection of the compound HT-267 solution, the fourth group given intraperitoneal injection of the compound HT-177 solution, the fifth group given intraperitoneal injection of the compound HT-178 solution, and the sixth group given intraperitoneal injection of the solvent of compound solution as a control. In the positioning navigation experiment, the treatment and training methods of the first and the second groups were the same as those of the first and second groups in Example 5, that is, four times of treatment a day, four times of training a day, for a total of 10 days of training. The treatment and training methods of the third to sixth groups were the same as the third and fourth groups in Example 5, that is, one treatment a day, four times of training a day, for a total of 8 days of training. In the space exploration experiment, the spatial memory ability of mice was tested in the same way for each group.

[4] = system: tri-transgenic Alzheimer's mice (3×Tg-AD); experiment: New object recognition experiment, Alzheimer's mice; type: in vivo; details: intraperitoneal injection
Source text: (§1) The new object recognition experiment is a highly validated method of cognitive memory, designed by Ennaceur & Delacour (1988) based on the exploration characteristics of rodents to new environments, and this model evaluates the memory function of the tested animal based on the length of time that the animal spends in exploring familiar objects it has seen in the environment and new objects it has not seen. […] The experiment is usually divided into three stages: 1. Adaptation period: let the animal be familiar with the experimental environment, and no objects are placed in the experimental box; 2. Familiarization period: place two identical objects in the experimental box and let the mice explore freely for 10 minutes; 3. Test period: put a new object in the experimental box to replace one of the old objects, and the positions of the objects remain unchanged. The exploration of mice was recorded with video, and the time spent in exploring the old and new objects by mice was analyzed, and the proportion of time spent in exploring the new object by mice in the test period accounting for the total time for exploring the objects was calculated, that is, the recognition index of new objects.
Adult male tri-transgenic Alzheimer's mice (3×Tg-AD) were housed under standard conditions with free access to food and water. […]

[5] = system: memory-deficient mice; experiment: New object recognition experiment, memory-deficient mice; type: in vivo; details: intraperitoneal injection
Source text: as §1
Adult memory-deficient mice were housed under standard conditions with free access to food and water. Our new object recognition experiment for testing memory-deficient mice mainly included the adaptation period, the familiarization period, and the test period. The experimental method was the same as Example 12.
We randomized memory-deficient mice into four groups, with one group given intraperitoneal injection of the solvent of drug as the control group, administration group 1 given intraperitoneal injection of the compound HT-267 solution, administration group 2 given intraperitoneal injection of the compound HT-177 solution, and administration group 3 given intraperitoneal injection of the compound HT-178 solution. After the adaptation and familiarization period training, we tested the recognition memory of several groups of mice in the test period experiment.

[6] = Pharmacokinetics in KM mice after intravenous administration; details: male, mouse, plasma, 1 mg/kg

- EC50 [1]: 23.8 nM
- AUC(0-inf) [6]: 302 ng·h/mL
- Cmax [6]: 1930 ng/mL
- Tmax [6]: 1.98 min
- half-life ([6]; T1/2, KM mice male, I.V. 1 mg/kg): 96.1 min
SMILES: CSCC[C@H](NC(=O)[C@@H](Cc1c[nH]c2ccccc12)NC(C)=O)C(=O)N[C@@H](CC(=O)O)C(=O)N[C@@H](Cc1cccc(Br)c1)C(N)=O [HT-267, Ac-D-Trp-Met-Asp-Phe(3-Br)-NH2]
- proportion of exploration duration in the target quadrant vs control [2]: significantly higher than the control group; also recorded: slightly better than the CCK4 administration group
- spatial exploration tracks in space exploration experiment [2]: more spatial exploration tracks at the original position of the platform
- evasion latency in positioning navigation experiment vs control ([2]; CCK4 four times a day 10 days, HT-267 once a day 8 days): shorter than that of the control group
- proportion of exploration duration in the target quadrant vs control [3]: significantly higher than that in the control group; also recorded: best effect
- recognition index of new objects vs control [4]: significantly higher than that of the control group
- recognition index of new objects vs control [5]: significantly higher than that of the control group
